One compound from patent US11730722B2, “Corneal endothelium ECM therapeutic medicaments” (KYOTO PREFECTURAL PUBLIC UNIVERSITY CORPORATION, priority 2013, dated 2023) can be followed below.

Common to all, as to type: cell-based, human
In experiment [1] the test system is iFECD. Briefly: HE-staining of extracellular matrix on Transwell with SB431542. The following applies: iFECD on Transwell without serum, fixed one week later; FIG. 9; p<0.01. As to the method: The iHCEC and the iFECD were cultured in DMEM on Transwell without serum, one week after which they were fixed in a confluent state and HE-stained. The procedure is as described below. If required, deparaffinization (for example, with pure ethanol) and water washing were carried out, and the sample was immersed in hematoxylin from Omni for 10 minutes. Thereafter, water washing with running water was performed, and ammonia water was used for developing color for 30 seconds. Thereafter, water washing with running water for 5 minutes, staining for 2 minutes with a ten-fold diluted solution of eosin hydrochloride, dehydration, lucidification, and mounting were performed. […] Further, the iHCEC and the iFECD were cultured on Transwell Permeable Supports: 0.4 μm, six well plates (Costar, Cat no.: 3450) without serum, one week after which they were fixed in a confluent state and HE-stained. The HE-staining was carried out in accordance with the procedure of the above-described examples.

Experiment [2] has as its system iFECD. Briefly: Real-time PCR of gene expression with TGF-beta signal inhibiting agent SB431542. The following applies: SB431542 0, 1, 3, 10 μM, FIG. 7, p<0.01. As to the method: Real-time PCR method: In addition, PCR was performed by a Taqman method for Snail1, Snail2, or ZEB1 in accordance with the following method. A Taqman probe was purchased from INVITROGEN. The mRNA amount of collagen type I, collagen type IV, and Fibronectin was examined by a real-time PCR method. RNEasy (QIAGEN, Catalog number: 74106) was used in extraction of the total RNA from cells. The extracted RNA was subjected to a reverse transcription reaction (42° C., 60 minutes) with ReverTra Ace (TOYOBO Co., Ltd., Catalog number: TRT-101), and collagen type I, collagen type IV, and Fibronectin were amplified with a reaction reagent TaqMan Fast Advanced mastermix (Applied Biosystems) using GAPDH as an internal standard. Probes (a labeled primer set available from Applied Biosystems) described below was used in the PCR reaction, which was performed in the StepOne™ (Applied Biosystems) real-time PCR system. It was then examined whether a TGF-beta signal inhibiting agent, SB431542, can be used to inhibit a TGF-beta signal and adjust extracellular matrix abnormality in a corneal endothelium. SB431542 was obtained from TOCRIS Corporation (Catalog number: 1614). The gene expression amount was confirmed by real-time PCR. Real-time PCR was carried out in accordance with the above-described examples. The following probes were used for collagen type I, collagen type IV, collagen type VIII, and Fibronectin. Collagen type I Hs00164004_ml COL1A1 Collagen type IV Hs00266327_ml COL4A1 Collagen type VIII Hs00697025_ml COL8A2 Fibronectin Hs01549976_ml FN1 GAPDH TaqMan® pre developed Assay Reagents Human GADPH (cat no.: 4333764F)
On the technique in general: In qPCR the cycle at which signal appears reflects the starting amount.

Experiment [3] concerns iFECD. Put plainly: Immunostaining of extracellular matrix-constituting proteins with SB431542. The following applies: FIG. 8. How it is done:
For a tissue staining test, cultured cells were put in Lab-TekTM Chamber SlidesTM (NUNC A/S, Roskilde, Denmark), fixed with 4% formaldehyde for 10 minutes at room temperature (RT), and incubated with 1% bovine serum albumin (BSA) for 30 minutes. […] In order to examine expression of an extracellular matrix produced by cells, a 1:200 dilution of each of antibodies against collagen type I, collagen type IV, and Fibronectin was used to carry out. For a secondary antibody, a 1:2000 dilution of Alexa Fluor (registered trademark) 488 labeled, or Alexa Fluor (registered trademark) 594 labeled goat anti-mouse IgG (Life Technologies) was used. Cell nuclei were then stained with DAPI (Vector Laboratories, Inc., Burlingame, Calif.) or PI (Sigma-Aldrich). A slide was then observed under a fluorescence microscope (TCS SP2 AOBS; Leica Microsystems, Welzlar, Germany). Then, expression of collagen type I, collagen type IV, and Fibronectin was similarly examined by immunostaining. The immunostaining was carried out in accordance with the above-described examples, provided that the following antibodies were used as antibodies for collagen type I, collagen type IV, and Fibronectin. An antibody against collagen type I: Anti collagen type I (Rabbit polyclonal) ([…] antibodies and assays, Cat no.: 600-401-103S) An antibody against collagen type IV: collagen type IV (Rabbit polyclonal)(Abcam, Cat no.: ab6586) An antibody against Fibronectin: Anti-fibronectin (mouse monoclonal) (BD Biosciences, Cat no.: 610077)

For the compound `NC(=O)c1ccc(-c2nc(-c3ccc4c(c3)OCO4)c(-c3ccccn3)[nH]2)cc1` [SB431542, 4-[4-(1,3-benzodioxol-5-yl)-5-(2-pyridinyl)-1H-imidazol-2-yl]benzamide], the “overproduction of an extracellular matrix (thickness, HE-staining)” value in experiment [1] was “suppressed overproduction of an extracellular matrix in the iFECD to result in the normal level”. For the same compound, in experiment [2], the “expression amount of Snail1 (real-time PCR)” value is reported as “significant decrease” and the “expression amount of ZEB1 (real-time PCR)” value is given as “significant decrease”. In addition, in experiment [2] (iFECD), the “gene expression of Fibronectin (real-time PCR)” value is reported as “significantly suppressed”, the “gene expression of collagen type I (real-time PCR)” value is listed as “significantly suppressed”, the “gene expression of collagen type IV (real-time PCR)” value is reported as “significantly suppressed” and the “gene expression of collagen type VIII (real-time PCR)” value is listed as “significantly suppressed”. In addition, in experiment [3], the “expression of Fibronectin in a protein level (immunostaining)” value is “suppressed”, the “expression of collagen type I in a protein level (immunostaining)” value is reported as “suppressed”, the “expression of collagen type IV in a protein level (immunostaining)” value was “suppressed” and the “expression of collagen type VIII in a protein level (immunostaining)” value is on record as “suppressed”.
